Values of other authors as cited in paper PMC9370779, “Traditional Medicinal Uses, Phytochemistry, Biological Properties, and Health Applications of Vitex sp” (Plants, 2022).
“Also recorded” adds a separate entry of the source.

How the values were obtained:
dopamine-D2-receptor = biological target: dopamine-D2-receptor; set-up: method as in PMID 10865453
NO production = system: NO production; set-up: method as in PMID 25245917; details: at 80 μM, the highest concentration tested
RAW 264.7 macrophages = system: RAW 264.7 macrophages; set-up: method as in PMID 25245917; details: at 40 μM
DOR = system: DOR; set-up: method as in PMID 21163339
MOR = system: MOR; set-up: method as in PMID 21163339
[1] = system: severe myelogenous leukemia tumor (K562) cells; set-up: method as in doi:10.1016/j.jscs.2021.101298; details: read-out: cytotoxicity against K562 cells, IC50 value
[2] = system: LPS-induced NO production in murine microglial cell BV-2 cells; set-up: method as in PMID 31448638; details: read-out: inhibition of LPS-stimulated NO production, IC50
BV-2 cells = system: BV-2 cells; set-up: method as in PMID 31448638
[3] = system: cervical cancer (HeLa) cell; set-up: method as in PMID 19156599; details: range given for both compounds together; read-out: inhibition of HeLa cell proliferation, IC50

Compound: C=CC(C)(O)CCC1=C(C)C(OC(C)=O)C(OC(C)=O)C2C(C)(C)CCCC12C (stereo not drawn) [Compound 52, 6β,7β-diacetoxy-13-hydroxy-labda-8,14-diene]
- affinity to the dopamine-D2-receptor, IC50 value (dopamine-D2-receptor): It showed strong affinity to the dopamine-D2-receptor with IC50 value of 15 μg/mL.

Compound: cannabifolin F [Compound 146]
- inhibition of NO production (NO production): < 50%

Compound: CC1(C)CC[C@@]23CC[C@@]4(C)[C@]5(C)CC[C@H]6C(C)(C)[C@@H](O)[C@H](O)C[C@]6(C)[C@H]5CC(=O)[C@]4(OC2=O)[C@@H]3C1 [Compound 145, cannabifolin E]
- cell viability of RAW 264.7 macrophages (RAW 264.7 macrophages): < 70%

Compound: CC(=O)O[C@@H]1C[C@@H](C)[C@](O)(CCC2=CC(=O)OC2O)[C@@]2(C)CCCC(C)(C)[C@H]12 (stereo partly drawn) [Compound 58, Viteagnusin I]
- activity on opioid receptor assay DOR (DOR): No activity was shown on opioid receptor assays DOR and MOR.
- activity on opioid receptor assay MOR (MOR): No activity was shown on opioid receptor assays DOR and MOR.

Compound: CC(=O)OC1CC(C)C2(CCC3(COC(=O)C3)O2)C2(C)CCCC(C)(C)C12 (stereo not drawn) [Compound 99, 9-epivitexnegundin]
- IC50 [1]: > 100 µM

Compound: O=C(O)CC1CCC(=O)C1CC=CCCOC1OC(COC(=O)C=Cc2ccc(O)c(O)c2)C(O)C(O)C1O (stereo not drawn) [Compound 159, 12-hydroxyjasmonic acid (6-O-caffeoyl)glucoside]
- IC50 [2]: > 100 µM
- cytotoxic effect on BV-2 cells (BV-2 cells): no cytotoxic effect; also recorded: no effect of cytotoxicity

Compound: CC(=O)O[C@H]1CC[C@@]2(C)[C@@H](CC[C@@H](C)[C@]2(O)CCc2ccoc2)C1(C)C [Compound 56, Vitetrifolin H]
- IC50 [3]: 4 to 28 µM
